According to US20070249540A1, “Methods for Inhibiting Proteasome and Heat Shock Protein 90” (priority 2004, published 2007):

Key:
[1] = system: MCF-7 breast cancer cells; experiment: Sensitization of MCF-7 breast cancer cells to the cytotoxic effects of Taxol; format: cell-based, human; conditions: MCF-7, 0.01 μM Taxol alone
Protocol: Tumor cells are allowed to proliferate in the presence of an inhibitory agent for 48 to 96 hrs. At the end of the assay, tumor cell proliferation in the presence of the inhibitory agent is determined either by cell counting or BrdU incorporation and expressed as % of Control Proliferation, where the term “Control Proliferation” refers to tumor cell proliferation in the absence of any inhibitory or other agents.
MCF-7 breast cancer cells were plated onto a 24-well plate at a density of 208,000 cells per well and allowed to adhere overnight. Subsequently, the cells were treated with 0.01 μM taxol, a concentration known to inhibit 50% of MCF-7 cell proliferation. 6 hrs after the addition of taxol, half of the wells received 0.001 μM SEQ ID NO: 2. […] Cell proliferation of control (untreated) MCF-7 cells and MCF-7 cells treated either with Taxol or SEQ ID NO: 2 alone or with the combination of Taxol and SEQ ID NO: 2 was determined.

[2] = system: MCF-7 breast cancer cells; conditions: 0.01 μM taxol, stated as known; cited from earlier work

Compound: CC(=O)O[C@H]1C(=O)[C@@]2(C)[C@H]([C@H](OC(=O)c3ccccc3)[C@]3(O)C[C@H](OC(=O)[C@H](O)[C@@H](NC(=O)c4ccccc4)c4ccccc4)C(C)=C1C3(C)C)[C@]1(OC(C)=O)CO[C@@H]1C[C@@H]2O [Taxol]
- % Control Proliferation [1]: 52%
- inhibition of MCF-7 cell proliferation [2]: 50%
